{"source": "paper PMC10885410", "about": "“Mining and functional characterization of NADPH-cytochrome P450 reductases of the DNJ biosynthetic pathway in mulberry leaves” (BMC Plant Biology, 2024)", "key": {"[1]": {"target": "T1, MaC3'H-MaCPR2 (Morus alba, UniProt A0A5P9L9Q5)", "T1 construct": "full ORFs of MaC3'H and MaCPR2 (715 aa) co-expressed from pESC-Trp (GAL1/GAL10) in Saccharomyces cerevisiae INVSc1; with NADPH--cytochrome P450 reductase", "T1 sequence (A0A5P9L9Q5 1-509)": "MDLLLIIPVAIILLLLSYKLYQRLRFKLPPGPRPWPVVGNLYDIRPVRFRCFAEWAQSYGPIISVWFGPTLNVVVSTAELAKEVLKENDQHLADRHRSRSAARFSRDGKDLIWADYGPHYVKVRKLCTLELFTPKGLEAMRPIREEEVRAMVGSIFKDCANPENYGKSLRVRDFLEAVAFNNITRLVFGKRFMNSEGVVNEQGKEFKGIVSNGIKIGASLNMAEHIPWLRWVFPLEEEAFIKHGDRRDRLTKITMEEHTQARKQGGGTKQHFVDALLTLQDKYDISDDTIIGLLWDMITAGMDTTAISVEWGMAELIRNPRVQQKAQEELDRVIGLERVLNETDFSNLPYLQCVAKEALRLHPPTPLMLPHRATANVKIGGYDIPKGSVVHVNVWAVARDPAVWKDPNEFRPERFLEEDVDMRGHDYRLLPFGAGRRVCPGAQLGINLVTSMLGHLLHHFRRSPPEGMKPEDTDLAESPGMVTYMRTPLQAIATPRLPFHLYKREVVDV", "assay": "yeast feeding, product by HPLC and LC-MS", "type": "cell-based", "details": "100 μM fed to yeast culture, 48 h, 30 °C; needs co-expressed MaCPR2"}, "[2]": {"test_system": "NC(=O)C1=CN([C@@H]2O[C@H](COP(=O)(O)OP(=O)(O)OC[C@H]3O[C@@H](n4cnc5c(N)ncnc54)[C@H](OP(=O)(O)O)[C@@H]3O)[C@@H](O)[C@H]2O)C=CC1", "assay": "purified protein", "details": "cytochrome c 200 μM, 50 mM Tris-HCl pH 7.4, 0.1 mM EDTA, 25 °C, varied: cofactor"}}, "data": [{"molecule": "O=C(/C=C/c1ccc(O)cc1)O[C@@H]1C[C@](O)(C(=O)O)C[C@@H](O)[C@H]1O", "note": "[3-O-p-coumaroylquinic acid]", "values": [{"measurement": "yeast feeding, product by HPLC and LC-MS", "setting": "[1]", "result": "transfers electrons to MaC3'H hydroxylase, thus transforming 3-O-p-coumaroylquinic acid into chlorogenic acid"}]}, {"molecule": "O=C(/C=C/c1ccc(O)c(O)c1)O[C@@H]1C[C@](O)(C(=O)O)C[C@@H](O)[C@H]1O", "note": "[chlorogenic acid]", "values": [{"measurement": "yeast feeding, product by HPLC and LC-MS", "setting": "[1]", "result": "expected product chlorogenic acid was detected in MaC3'H-MaCPR2/pESC-Trp/INVSCI engineered bacteria"}]}, {"molecule": "MaCPR2 (Morus alba)", "values": [{"measurement": "Km", "setting": "[2]", "result": "13.93 ± 1.54", "unit": "µM"}, {"measurement": "Vmax", "setting": "[2]", "result": 2.43, "unit": "µmol/min/mg"}]}]}
